Data: US20100273748A1, “ANTIMICROBIAL THERAPY” (priority 2006, published 2010)

Tests used:
[1] = system: acetylated histone H4; assay: Histone H4 acetylation in keratinocytes (immunofluorescence, Western blot); type: cell-based, human; conditions: HDACi in the presence of 1,25D3
Protocol: Panel a; Immunofluorescence staining of acetylated histone H4 protein in NHEK treated with HDACi in the presence or absence of 1,25D3. […] Panel b: Western blot of acetylated histone 4 from keratinocytes treated with the HDACi butyrate or TLR agonists. […] Bar=30 μM.
The abundance of acetylated histone was directly measured to confirm the inhibitory effects of butyrate and TSA on HDACs. […] To determine if changes in histone acetylation occur upon stimulation of keratinocytes with TLR ligands NHEK were stimulated with different TLR ligands and histone acetylation was assessed.

[2] = system: cathelicidin; assay: qPCR of cathelicidin mRNA in cultured keratinocytes; type: cell-based, human; conditions: for increase of cathelicidin mRNA: 24 hours
Protocol: Cell culture and stimuli. Human keratinocytes were grown in serum-free EpiLife® cell culture media (Cascade Biologics; Portland, Oreg.) containing 0.06 mM Ca2+ and 1× EpiLife® defined growth supplement (EDGS) at 37° C. under standard tissue culture conditions. Stock cultures were maintained for up to five passages in this media with the addition of 50 U/mL penicillin and 50 μg/mL streptomycin. HaCaT keratinocytes were cultured in DMEM (Sigma, St. Louis, Mo.) with 10% FCS. Cells at 50-70% confluence were stimulated in fresh medium after preincubation with 1,25(OH)2 vitamin D3 (1,25D3; 0.1-100 nM, 4-24 h; Sigma). Alternatively, NHEK were stimulated in the presence of 1,25D3 (0.1-100 nM). Stimuli included TLR2,6 ligands Malp-2 (0.001-0.5 μg/ml; Alexis Biochemicals, Carlsbad, Calif.), FSL-1 (1-2 μg/ml, Invivogen, San Diego, Calif.) and zymosan (50 μg/ml; Invivogen), as well as flagellin (50 ng/ml; Alexis), LPS (1 μg/ml; Sigma), lipoteichoic acid (LTA; 10 μg/ml; Sigma), 19 kDA lipopeptide (10 μg/ml, a kind gift from S. Krutzik, Division of Dermatology, UCLA), CpG DNA (10 μg/ml; Sigma), Ca2+ (1.7 mM), LPS (1 μg/ml; Sigma), TNFα (20 ng/ml; Chemicon Temecula, Calif.) and TGFβ1 (0.1-1 μg/ml; R&D Systems, Minneapolis, Minn.). A TLR2 blocking antibody (αTLR2; clone TL2.1, 5 μg/ml, eBioscience, San Diego, Calif.) was utilized to investigate the role of TLR2 signaling. Furthermore, keratinocytes were pretreated with a vitamin D receptor antagonist (VDR-antagonist ZK159222 Schering AG; 10^-7M) or the CYP inhibitor itraconazole (ITRA; 10^-7M) before stimulation with TGFβ in the presence of 25OH vitamin D3 (25D3, 10 nM, Sigma).
Real-time RT-PCR (qPCR). RNA was extracted from cells, epidermal constructs or tissue using Trizol® and 1 μg RNA was reverse transcribed using iScript® (BioRad, Hercules, Calif.). Expression of cathelicidin and GAPDH was analysed by real-time RT-PCR. Predeveloped Taqman® assay probes (ABI, Foster City, Calif.) were used for the analyses of the expression of CYP24A1 (24-hydroxylase), CYP27B1 (1α-hydroxylase), CD14, CD36, TLR1, TLR2, TLR4, TLR6 and murine CD14. All analyses were performed in triplicate from 2-5 independent experiments in an ABI Prism® 7000 Sequence Detection System. Fold induction relative to the vehicle treated control in in vitro experiments was calculated using the comparative Ct method, where ΔΔCt is ΔCt(stimulant)-ΔCt(vehicle), ΔCt is Ct(gene)-Ct(GAPDH) and Ct is the cycle at which an arbitrary detection threshold is crossed. For quantification of transcript abundance in tissue samples target gene expression was normalized to GAPDH and compared to non-treated or non-injured skin.

[3] = Topical treatment of healthy volunteers' skin, clinical and histological inflammation; type: in vivo, human; conditions: single topical application of 1,25D3
Protocol: Patients and treatments. Human skin wounds were collected following informed consent by inducing 5 mm full-thickness wounds in volunteers (n=5) under aseptic conditions with local anesthesia as described. At 24 hours after incision, 4 mm punch biopsies were taken from the site of injury and immediately fixed in formalin for immunostaining or frozen in liquid N2 for subsequent RNA isolation. Intact skin from healthy volunteers served as control (n=4). To examine the effects of topical 1,25D3, healthy skin of volunteers (n=7) was treated once topically with 1,25D3 (1.0 mM) and left under occlusion for 4 days. Vehicle treated contralateral skin served as a control. After treatment, skin biopsies were obtained from both sites, fixed in formalin 10% and embedded in paraffin for immunostaining. All treatments and sample acquisitions, including skin biopsies, were approved by the committees on investigations involving human subjects.

[4] = system: cathelicidin; assay: Cathelicidin protein immunostaining in NHEK; type: cell-based, human; conditions: butyrate (2 mM) and 1,25D3 (10^−8M), 24 hours
Protocol: Panel a: NHEKs were stimulated with 1,25D3 (10^−9-10^−7 M) in the presence of the HDAC inhibitor butyrate (BUT; 2 mM) for 24 hours. mRNA abundance was determined by real-time qPCR for cathelicidin and glyceraldehyde-3-phosphate dehydrogenase and normalized to vehicle-treated controls. […] Data shown are means (7SD) of the results from a single stimulation experiment performed in triplicates and are representative of at least three independent experiments (**P<0.01; ***P<0.001; two-way analysis of variance). Panel b: The HDAC inhibitor TSA (200 ng ml^−1) induces cathelicidin in the presence of 1,25D3 (10^−8M). Expression of cathelicidin is dependent on a functional VDR, as pretreatment with the VDR antagonist ZK159222 (10^−7 M) inhibits induction of cathelicidin with BUT (2 mM) in the presence of 1,25D3 (10^−8 M) after 24 hours. Expression of cathelicidin was determined by qPCR as described in Panel a. (*P<0.05; Student's t-test). […] Cells were stained with a polyclonal anti-LL-37 antibody (followed by an FITC-coupled secondary antibody) and nuclei detected with 4,6-diamidino-2-phenylindole (Bar=30 μM). […] NHEKs were stimulated with 1,25D3 (10^−8M) in combination with the HDAC inhibitor BUT (2 mM) for 24 hours, cells harvested and cell lysates co-incubated with S. aureus DmprF, and bacterial growth monitored over time to determine antimicrobial activity. […]

For `C=C1/C(=C\C=C2/CCC[C@]3(C)[C@@H]([C@H](C)CCCC(C)(C)O)CC[C@@H]23)C[C@@H](O)C[C@@H]1O` [1,25D3, 1,25(OH)2 vitamin D3], the “acetylation of histone H4” value [1] was “further increased”, the “increase of cathelicidin expression over cells without 1,25D3” value ([2]; 1,25D3 0.1 nM, then Malp-2, dose dependent) was “up to 60 fold” and the “increase of cathelicidin mRNA” value ([2]; 10^−7 M 1,25D3 in the absence of butyrate) was “about 75 fold”. The “increase of cathelicidin mRNA” value ([2]; 10^−7 M 1,25D3 in the presence of butyrate (2 mM)) was “over 200 fold”, the “clinical or histological evidence of inflammation” value [3] was “did not induce clinical or histological evidence of inflammation” and the “cathelicidin peptide expression (immunostaining)” value [4] was “increase in cathelicidin peptide expression”.
